In paper PMC3706088 (Journal of medicinal chemistry, 2013):
pEC50: −log10 of the molar value. Entries after “also recorded” stand apart in the source; their conditions may differ. Like-named read-outs stand apart in the source and are kept apart here.

What was measured:
[1] = tested on: Female Sprague-Dawley rats; assay: Hypothermia: body temperature in rats over 6 h after injection; details: rat, up to a dose of 10.0 mg/kg s.c.
[2] = target: CB1-E cannabinoid receptors (Homo sapiens, UniProt P21554); assay: β-arrestin2 translocation assay, U2OS cells expressing CB1-E and β-arrestin2-GFP; details: for β-arrestin2 translocation efficacy, 95% confidence interval: normalized to the response of WIN55212-2 set to 1, N = 3; for in vitro functional characterization, CB1 profile: conclusion of the in vitro functional assays
[3] = tested on: Female Sprague-Dawley rats; assay: Antinociception: tail-flick procedure in rats over 6 h after injection; details: rat, up to doses of 10.0 mg/kg s.c.
[4] = target: T1, rCB1 (Rattus norvegicus, UniProt P20272); type: cell-based; details: for functional profile in cAMP assay: CB1
[5] = target: mCB2 (Mus musculus, UniProt P47936); assay: Radioligand competition binding with [3H]CP-55,940, mouse spleen membranes; details: from Ki values
[6] = target: hCB2 (Homo sapiens, UniProt P34972); type: binding; details: from Ki values
[7] = target: T1, rCB1; assay: Radioligand competition binding with [3H]CP-55,940, rat brain membranes; details: relative to 11; across rCB1, mCB2 and hCB2

Sequence of CB1-E cannabinoid receptors (P21554 1-415): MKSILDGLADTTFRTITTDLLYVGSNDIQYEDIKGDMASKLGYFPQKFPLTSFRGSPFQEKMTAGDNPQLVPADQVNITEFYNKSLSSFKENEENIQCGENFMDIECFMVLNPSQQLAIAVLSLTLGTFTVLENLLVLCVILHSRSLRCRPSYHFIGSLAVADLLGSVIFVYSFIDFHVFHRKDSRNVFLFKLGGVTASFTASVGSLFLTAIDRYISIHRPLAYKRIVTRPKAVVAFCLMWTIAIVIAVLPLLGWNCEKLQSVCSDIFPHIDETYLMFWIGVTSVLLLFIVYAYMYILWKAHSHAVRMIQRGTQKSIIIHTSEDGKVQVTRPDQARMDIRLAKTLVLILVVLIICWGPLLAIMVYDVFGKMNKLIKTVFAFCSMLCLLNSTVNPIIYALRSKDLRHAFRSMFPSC
Sequence of CB1-E cannabinoid receptors (P25103 309-407 partner): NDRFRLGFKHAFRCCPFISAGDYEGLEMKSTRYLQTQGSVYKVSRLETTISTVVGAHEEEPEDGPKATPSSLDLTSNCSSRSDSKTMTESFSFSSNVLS
T1 sequence (P20272 whole entry): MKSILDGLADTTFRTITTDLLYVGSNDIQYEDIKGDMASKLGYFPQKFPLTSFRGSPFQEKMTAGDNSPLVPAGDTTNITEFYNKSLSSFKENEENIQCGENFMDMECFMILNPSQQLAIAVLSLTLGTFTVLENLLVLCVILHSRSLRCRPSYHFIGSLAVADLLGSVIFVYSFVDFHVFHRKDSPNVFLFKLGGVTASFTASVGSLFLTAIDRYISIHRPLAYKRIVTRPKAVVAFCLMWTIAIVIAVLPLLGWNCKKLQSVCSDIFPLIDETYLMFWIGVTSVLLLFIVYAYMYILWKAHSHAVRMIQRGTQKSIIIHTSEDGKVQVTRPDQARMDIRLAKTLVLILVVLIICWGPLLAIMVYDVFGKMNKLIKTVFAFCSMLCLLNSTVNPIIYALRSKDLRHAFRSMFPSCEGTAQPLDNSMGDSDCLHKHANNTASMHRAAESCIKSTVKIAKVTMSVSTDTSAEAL
Sequence of mCB2 (P47936 whole entry): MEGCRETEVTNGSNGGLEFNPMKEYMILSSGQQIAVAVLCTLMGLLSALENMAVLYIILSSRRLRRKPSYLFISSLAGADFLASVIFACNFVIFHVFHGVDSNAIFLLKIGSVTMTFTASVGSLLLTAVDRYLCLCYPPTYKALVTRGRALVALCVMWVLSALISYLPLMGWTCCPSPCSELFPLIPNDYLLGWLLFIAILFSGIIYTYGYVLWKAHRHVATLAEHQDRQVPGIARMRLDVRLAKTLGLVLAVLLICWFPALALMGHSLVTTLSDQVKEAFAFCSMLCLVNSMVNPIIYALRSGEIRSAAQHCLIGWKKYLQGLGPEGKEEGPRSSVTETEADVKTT
Sequence of hCB2 (P34972 whole entry): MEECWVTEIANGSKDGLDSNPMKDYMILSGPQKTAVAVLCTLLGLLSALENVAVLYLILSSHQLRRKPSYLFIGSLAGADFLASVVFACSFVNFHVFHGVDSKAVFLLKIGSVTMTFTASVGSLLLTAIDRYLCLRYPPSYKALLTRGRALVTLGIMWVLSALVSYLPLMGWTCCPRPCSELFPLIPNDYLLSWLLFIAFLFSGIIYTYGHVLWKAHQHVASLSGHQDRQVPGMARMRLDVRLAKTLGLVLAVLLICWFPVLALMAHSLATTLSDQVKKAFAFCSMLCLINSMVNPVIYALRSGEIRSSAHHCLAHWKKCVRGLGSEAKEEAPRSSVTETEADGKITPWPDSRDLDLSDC

Compound	β-arrestin2 translocation efficacy, 95% confidence interval [2]	antinociceptive effects (tail-flick) [3]	pEC50 [4]	functional profile in cAMP assay [4]	in vitro functional characterization, CB1 profile [2]	CB1 selectivity over mCB2 [5]	further results
CC1=CC[C@@H]2[C@@H](C1)c1c(O)cc(C34CC5CC(CC(C5)C3)C4)cc1OC2(C)C [Compound 1]	0.43–0.81	neither had significant antinociceptive effects	–	–	–	–	hypothermic effects [1]: did not have hypothermic effects
CC1(C)Oc2cc(C34CC5CC(CC(C5)C3)C4)cc(O)c2[C@@H]2C[C@H](CO)CC[C@H]21 [Compound 11, (6aR,9R,10aR)-3-(Adamantan-1-yl)-9-(hydroxymethyl)-6,6-dimethyl-6a,7,8,9,10,10a-hexahydro-6H-benzo[c]chromen-1-ol]	0.65–0.92	–	8.89	potent CB1 agonist	high efficacy CB1 agonists	–	functional profile in cAMP assay ([4]; listed as AM4054): agonist
CC1(C)Oc2cc(C34CC5CC(CC(C5)C3)C4)cc(O)c2[C@@H]2C[C@H](CCO)CC[C@H]21 [Compound 16, (6aR,9R,10aR)-3-(Adamantan-1-yl)-9-(2-hydroxyethyl)-6,6-dimethyl-6a,7,8,9,10,10a-hexahydro-6H-benzo[c]chromen-1-ol]	–	–	–	–	–	~ 4 fold	CB1 selectivity over hCB2 [6]: ~ 4 fold
CC1(C)Oc2cc(C34CC5CC(CC(C5)C3)C4)cc(O)c2[C@@H]2C[C@@H](CO)CC[C@H]21 [Compound 17, (6aR,9S,10aR)-3-(Adamantan-1-yl)-9-(hydroxymethyl)-6,6-dimethyl-6a,7,8,9,10,10a-hexahydro-6H-benzo[c]chromen-1-ol]	–	–	–	–	–	–	lower affinities than β-hydroxymethyl isomer 11 [7]: 6- to 11 fold
CC1(C)Oc2cc(C34CC5CC(CC(C5)C3)C4)cc(O)c2[C@@H]2CC(CO)=CC[C@H]21 [Compound 22, (6aR,10aR)-3-(Adamantan-1-yl)-9-(hydroxymethyl)-6,6-dimethyl-6a, 7, 10, 10a-tetrahydro-6H-benzo[c]chromen-1-ol]	0.54–0.80	–	–	–	high efficacy CB1 agonists	–	–
CC1(C)Oc2cc(C34CC5CC(CC(C5)C3)C4)cc(O)c2-c2cc(CO)ccc21 [Compound 24]	0.68–0.94	neither had significant antinociceptive effects	8.10	CB1 partial agonist; also recorded: partial CB1 agonist	–	15 fold	functional profile in cAMP assay ([4]; listed as AM4089): partial agonist
